From US20080234254A1, “Inhibitors of Histone Deacetylase” (UNIVERSITY OF LEEDS, priority 2004, published 2008)
Read-outs that look alike come from different tables or passages of the source.

Legend:
HCC-2998 = assay: Screening against cancer cell lines: HCC-2998 (Colon); assay type: cell-based
Text: (§1) Screening of Benzamide Derivatives Against Cancer Cell Lines Tables 1 and 2 tabulate by way of example the results obtained for compounds (4) and (6).
(§2) 6 colon cancer cell lines were screened against both compound (4) and MS275.

SR = assay: Screening against cancer cell lines: SR (Leukaemia); assay type: cell-based
Text: as §1

NCI-H522 = assay: Screening against cancer cell lines: NCI-H522 (Non-Small Cell Lung); assay type: cell-based
Text: as §1
(§3) 8 non-small cell lung cancer cell lines were screened against both compound (4) and MS275.

MDA-MB-435 = assay: Screening against cancer cell lines: MDA-MB-435 (Breast); assay type: cell-based
Text: as §1
(§4) 7 breast cancer cell lines were screened against both compound (4) and MS275.

cancer cell lines = assay: Screening of benzamide derivatives against cancer cell lines (summary); assay type: cell-based; settings: summary of Tables 1 and 2
Text: as §1

NCI-H23 = assay: Screening against cancer cell lines: NCI-H23 (Non-Small Cell Lung); assay type: cell-based
Text: as §1, §3

IGROV1 = assay: Screening against cancer cell lines: IGROV1 (Ovarian); assay type: cell-based; settings: for GI50: IGROV-1
Text: as §1
(§5) 6 ovarian cancer cell lines were screened against both compound (4) and MS275.

NCI/ADR-RES = assay: Screening against cancer cell lines: NCI/ADR-RES (Breast); assay type: cell-based
Text: as §1, §4

LOX IMVI = assay: Screening against cancer cell lines: LOX IMVI (Melanoma); assay type: cell-based
Text: as §1
(§6) 7 melanoma cancer cell lines were screened against both compound (4) and MS275.

SK-MEL-28 = assay: Screening against cancer cell lines: SK-MEL-28 (Melanoma); assay type: cell-based; settings: Homo sapiens; SK-MEL-28, melanoma; comparison versus MS275; read-out: potency (quantity not named; values match GI50 of Table 1)
Text: as §1, §6

ACHN = assay: Screening against cancer cell lines: ACHN (Renal); assay type: cell-based; settings: Homo sapiens, renal cancer, comparison versus MS275, read-out: potency (quantity not named; values match GI50 of Table 1)
Text: as §1
(§7) 7 renal cancer cell lines were screened against both compound (4) and MS275.

SK-OV-3 = assay: Comparison test versus MS275: SK-OV-3 (ovarian cancer); assay type: cell-based; settings: Homo sapiens, read-out: potency (quantity not named; values match GI50 of Table 1)
Text: as §5

RXF 393 = assay: Screening against cancer cell lines: RXF 393 (Renal); assay type: cell-based; settings: Homo sapiens; RXF 393, renal cancer; comparison versus MS275; read-out: potency (quantity not named; values match GI50 of Table 1)
Text: as §1, §7

OVCAR-4 = assay: Comparison test versus MS275: OVCAR-4 (ovarian cancer); assay type: cell-based; settings: Homo sapiens, read-out: potency (quantity not named; values match GI50 of Table 1)
Text: as §5

UACC-257 = assay: Screening against cancer cell lines: UACC-257 (Melanoma); assay type: cell-based; settings: Homo sapiens; UACC-257, melanoma; comparison versus MS275; read-out: potency (quantity not named; values match GI50 of Table 1)
Text: as §1, §6

786-0 = assay: Comparison test versus MS275: 786-0 (renal cancer); assay type: cell-based; settings: Homo sapiens, read-out: potency (quantity not named; values match GI50 of Table 1)
Text: as §7

MDA-MB-231/ATCC = assay: Screening against cancer cell lines: MDA-MB-231/ATCC (Breast); assay type: cell-based; settings: Homo sapiens, breast cancer, comparison versus MS275, read-out: potency (quantity not named; values match GI50 of Table 1)
Text: as §1, §4

SN12C = assay: Screening against cancer cell lines: SN12C (Renal); assay type: cell-based; settings: Homo sapiens, renal cancer, comparison versus MS275, read-out: potency (quantity not named; values match GI50 of Table 1)
Text: as §1, §7

KM-12 = assay: Comparison test versus MS275: KM-12 (colon cancer); assay type: cell-based; settings: Homo sapiens, KM12, read-out: potency (quantity not named; values match GI50 of Table 1)
Text: as §2

HCT-15 = assay: Screening against cancer cell lines: HCT-15 (Colon); assay type: cell-based; settings: Homo sapiens; HCT-15, colon cancer; comparison versus MS275; read-out: potency (quantity not named; values match GI50 of Table 1)
Text: as §1, §2

tumours = settings: mice; cited from earlier work
rat fibroblasts = settings: cited from earlier work

For `C=C(CN1CCOCC1)c1ccc(C(=O)Nc2ccccc2N)cc1` [(1), N-(2-Amino-phenyl)-4-(1-morpholin-4-ylmethyl-vinyl)-benzamide], the melting point was 163 to 164 °C.
`C=C(CN(C)Cc1ccccc1)c1ccc(C(=O)Nc2ccccc2N)cc1` [(2), N-(2-amino-phenyl)-4-(1-{[benzyl(methyl)amino]methyl}vinyl)benzamide] gave a melting point of 110 to 111 °C.
Work on `C=C(CN1CCc2c([nH]c3ccccc23)C1)c1ccc(C(=O)Nc2ccccc2N)cc1` [(6), N-(2-aminophenyl)-4-[1-(1,3,4,9-tetrahydro-2H-β-carbolin-2-ylmethyl)vinyl]benzamide] yielded a TGI (HCC-2998; HCC-2998, Colon, Table 2) of 1900 nM, a GI50 (HCC-2998; Homo sapiens, HCC 2998) of 731 nM and a CC50 (HCC-2998; Homo sapiens, HCC 2998, read-out: LC50) of 5000 nM. For the same compound, the GI50 (SR; Homo sapiens) was 622 nM, the CC50 (SR; Homo sapiens, read-out: LC50) was over 50000 nM and the TGI (SR; Leukaemia, Table 2) was “— (‘—’ indicates a concentration exceeding 50 μM.)”. It also gave a GI50 (NCI-H522; Homo sapiens, NCI-H522) of 150 nM, a CC50 (NCI-H522; Homo sapiens, NCI-H522, read-out: LC50) of over 50000 nM and a TGI (NCI-H522; NCI-H522, Non-Small Cell Lung, Table 2) of 3000 nM. The GI50 (MDA-MB-435; Homo sapiens, MDA-MB-435) was 948 nM, the CC50 (MDA-MB-435; Homo sapiens, MDA-MB-435, read-out: LC50) was 5600 nM and the TGI (MDA-MB-435; MDA-MB-435, Breast, Table 2) was 2200 nM. The “activity against cancer cell lines (in words)” value (cancer cell lines) was “nanomolar activity”, the GI50 (NCI-H23; Homo sapiens, NCI-H23) was 1040 nM and the CC50 (NCI-H23; Homo sapiens, NCI-H23, read-out: LC50) was 13400 nM. It also gave a TGI (NCI-H23; NCI-H23, Non-Small Cell Lung, Table 2) of 3200 nM, a GI50 (IGROV1; Homo sapiens) of 32 nM and a CC50 (IGROV1; Homo sapiens, IGROV-1, read-out: LC50) of over 50000 nM. The TGI (IGROV1; IGROV1, Ovarian, Table 2) was 8500 nM, the TGI (NCI/ADR-RES; Breast, Table 2) was 3900 nM and the GI50 (NCI/ADR-RES; Homo sapiens) was 973 nM. For the same compound, the CC50 (NCI/ADR-RES; Homo sapiens, read-out: LC50) was 18300 nM, the GI50 (LOX IMVI; Homo sapiens) was 763 nM and the CC50 (LOX IMVI; Homo sapiens, read-out: LC50) was over 50000 nM. It also gave a TGI (LOX IMVI; Melanoma, Table 2) of 2400 nM.
Compound `C=C(CNCc1ccccc1)c1ccc(C(=O)Nc2ccccc2N)cc1` [(7), N-(2-aminophenyl)-4-{1-[(benzylamino)methyl]vinyl}benzamide] has a melting point of 89 to 91 °C.
`C=C(CN1CCN(c2ccccc2OC)CC1)c1ccc(C(=O)Nc2ccccc2N)cc1` [(9), N-(2-aminophenyl)-4-{1-[4-(2-methoxy-phenyl)-piperazin-1-ylmethyl]vinyl}-benzamide] showed a melting point of 115 to 116 °C.
Work on `C=C(CN1CCOCC1)c1ccc(CC(=O)Nc2ccccc2N)cc1` [(11), N-(2-Amino-phenyl)-2-[4-(1-morpholin-4-ylmethyl-vinyl)-phenyl]-acetamide] yielded a melting point of 129 °C.
`C=C(CN1CCOCC1)c1ccc(CCCC(=O)Nc2ccccc2N)cc1` [(13), N-(2-Amino-phenyl)-4-[4-(1-morpholin-4-ylmethyl-vinyl)-phenyl]-butanamide] showed a melting point of 79 to 81 °C.
`CC(C)=C(CN1CCc2ccccc2C1)c1ccc(C(=O)Nc2ccccc2N)cc1` [(14), N-(2-Amino-phenyl)-4-[1-(3,4-dihydro-1H-isoquinolin-2-ylmethyl)-2-methyl-propenyl]-benzamide] showed a melting point of 120 °C.
For `Nc1ccccc1NC(=O)c1ccc(CNC(=O)OCc2cccnc2)cc1` [MS275, reference compound], the GI50 (HCC-2998; Homo sapiens, HCC-2998, colon cancer, comparison versus MS275, read-out: potency (quantity not named; values match GI50 of Table 1)) was 1260 nM, the GI50 (SK-MEL-28) was 2000 nM and the GI50 (ACHN) was 2000 nM. It also gave a GI50 (SK-OV-3) of 5010 nM, a GI50 (NCI-H522; Homo sapiens, NCI-H522, non-small cell lung cancer, comparison versus MS275, read-out: potency (quantity not named; values match GI50 of Table 1)) of 1000 nM and a GI50 (RXF 393) of 2000 nM. It also gave a GI50 (OVCAR-4) of 20000 nM, a GI50 (MDA-MB-435; Homo sapiens, MDA-MB-435, breast cancer, comparison versus MS275, read-out: potency (quantity not named; values match GI50 of Table 1)) of 10000 nM and a GI50 (UACC-257) of 1540 nM. For the same compound, the GI50 (786-0) was 3160 nM, the GI50 (NCI-H23; Homo sapiens, NCI-H23, non-small cell lung cancer, comparison versus MS275, read-out: potency (quantity not named; values match GI50 of Table 1)) was 1030 nM and the GI50 (MDA-MB-231/ATCC) was 2000 nM. For the same compound, the GI50 (IGROV1; Homo sapiens, IGROV1, ovarian cancer, comparison versus MS275, read-out: potency (quantity not named; values match GI50 of Table 1)) was 2510 nM, the GI50 (SN12C) was 5010 nM and the GI50 (KM-12) was 25000 nM. The GI50 (HCT-15) was 3980 nM, the GI50 (NCI/ADR-RES; Homo sapiens, breast cancer, comparison versus MS275, read-out: potency (quantity not named; values match GI50 of Table 1)) was 1260 nM and the GI50 (LOX IMVI; Homo sapiens, melanoma, comparison versus MS275, read-out: potency (quantity not named; values match GI50 of Table 1)) was 790 nM.
For `CC(/C=C/C(=O)NO)=C\[C@@H](C)C(=O)c1ccc(N(C)C)cc1` [Trichostatin A], the formation of tumours (tumours) is listed as “prevent the formation of tumours in mice” and the “effect on the cell cycle” value (rat fibroblasts) is listed as “arrest of rat fibroblasts at the G1 and G2 phases of the cell cycle”.
